Measurements taken from patent US4298690A, “Antibiotics XK-62-3 and XK-62-4 and process for production thereof” (Kyowa Hakko Kogyo Co., Ltd., priority 1977, dated 1981).
In brackets after ≈: the same amount, converted by molar mass. Where a name gives a salt, the structure may show the parent alone.

What was measured:
[1] = test system: Serratia marcescens KY 4248; test: MIC by agar dilution method at pH 8.0, Serratia marcescens KY 4248; type: cell-based; conditions: KY4248, read-out: Minimum Inhibitory Concentration
Source text: (§1) Table 4 illustrates the antibacterial spectra of XK-62-3 and XK-62-4 against various microorganisms.
(§2) (Minimum Inhibitory Concentration, γ/ml
(§3) measured by agar dilution method at pH 8.0)

[2] = test system: Pseudomonas aeruginosa Z 444; test: MIC by agar dilution method at pH 8.0, Pseudomonas aeruginosa Z 444; type: cell-based; conditions: Z444, Pseudomonas aeruginosa Z 444, resistant to gentamicin, AAC(6')-III, read-out: Minimum Inhibitory Concentration
Source text: as §1, §2, §3

[3] = test system: Bacillus subtilis No. 10707; test: MIC by agar dilution method at pH 8.0, Bacillus subtilis No. 10707; type: cell-based; conditions: read-out: Minimum Inhibitory Concentration
Source text: as §1, §2, §3

[4] = test system: Gram-positive and Gram-negative bacteria; test: Antibacterial activity against a broad range of bacteria (in words); type: cell-based
Source text: as §1, §2, §3

[5] = test system: Klebsiella pneumoniae ATCC 10031; test: MIC by agar dilution method at pH 8.0, Klebsiella pneumoniae ATCC 10031; type: cell-based; conditions: ATCC10031, read-out: Minimum Inhibitory Concentration
Source text: as §1, §2, §3

[6] = test system: Pseudomonas aeruginosa KY 8563; test: MIC by agar dilution method at pH 8.0, Pseudomonas aeruginosa KY 8563; type: cell-based; conditions: KY8563, Pseudomonas aeruginosa KY 8563, resistant to gentamicin, AAC(3)-II, read-out: Minimum Inhibitory Concentration
Source text: as §1, §2, §3

[7] = test system: Shigella sonnei ATCC 9290; test: MIC by agar dilution method at pH 8.0, Shigella sonnei ATCC 9290; type: cell-based; conditions: ATCC9290, read-out: Minimum Inhibitory Concentration
Source text: as §1, §2, §3

[8] = test system: Pseudomonas aeruginosa BMH No. 1; test: MIC by agar dilution method at pH 8.0, Pseudomonas aeruginosa BMH No. 1; type: cell-based; conditions: BMHNO.1, read-out: Minimum Inhibitory Concentration
Source text: as §1, §2, §3

[9] = test system: Klebsiella pneumoniae KY 4261; test: MIC by agar dilution method at pH 8.0, Klebsiella pneumoniae KY 4261; type: cell-based; conditions: KY4261, read-out: Minimum Inhibitory Concentration
Source text: as §1, §2, §3

[10] = test system: resistant strains of Escherichia coli and Pseudomonas aeruginosa (6'-N-acetylation); test: Antibacterial activity against resistant strains with 6'-N-acetylation (in words); type: cell-based; conditions: E. coli and P. aeruginosa resistant by 6'-N-acetylation, etc.
Source text: as §1, §2, §3

[11] = test system: Proteus vulgaris ATCC 6897; test: MIC by agar dilution method at pH 8.0, Proteus vulgaris ATCC 6897; type: cell-based; conditions: ATCC6897, read-out: Minimum Inhibitory Concentration
Source text: as §1, §2, §3

Escherichia coli ATCC 26 = test: MIC by agar dilution method at pH 8.0, Escherichia coli ATCC 26; type: cell-based; conditions: ATCC26, read-out: Minimum Inhibitory Concentration
Source text: as §1, §2, §3

[12] = Acute toxicity in dd-mice; conditions: mouse, in vivo
[13] = Solubility of the free base; type: physicochemical; conditions: for solubility in organic solvents: chloroform, benzene, ethyl acetate, butyl acetate, ether, butanol, petroleum ether, n-hexane
[14] = test system: Salmonella typhosa ATCC 9992; test: MIC by agar dilution method at pH 8.0, Salmonella typhosa ATCC 9992; type: cell-based; conditions: Salmonella enterica, pH 8, read-out: Minimum Inhibitory Concentration
Source text: as §1, §2, §3

[15] = test system: Pseudomonas aeruginosa Z 445; test: MIC by agar dilution method at pH 8.0, Pseudomonas aeruginosa Z 445; type: cell-based; conditions: Z445, Pseudomonas aeruginosa Z 445, resistant to gentamicin, AAC(6')-III, read-out: Minimum Inhibitory Concentration
Source text: as §1, §2, §3

[16] = test system: Bacillus subtilis No. 10707; test: Activity (units) of purified preparate; type: cell-based; conditions: for activity: per mg not given, Examples 2D, 3, 4
Protocol: The activity of the eluate is determined against Bacillus subtilis No. 10707 by a paper disk method using an agar plate. Active fractions are combined and concentrated in vacuo to about 3 L. The concentrate is adjusted to pH 8.0 with 6 N sulfuric acid and passed through a column packed with 3 L of an anion exchange resin, Dowex 1×2 (OH^- form). The column is washed with about 20 L of water and active principles are eluted with 1 N aqueous ammonia. The active fractions are combined and concentrated to 1/10 by volume. The pH of the concentrate is adjusted to 10.5 with 6 N sodium hydroxide and 4 volumes of acetone is added thereto. The resulting precipitate is removed by filtration and the acetone layer is concentrated to 2 L. The concentrate is adjusted to pH 4.5 with 6 N sulfuric acid and then 10 L of methanol is added thereto. After cooling, a white precipitate is obtained. The precipitate is separated by filtration and washed with methanol. After drying in vacuo, about 250 g of white powder (sulfate form) is obtained.
The residue is dissolved in a small amount of water and the solution is freeze-dried to obtain about 1.5 g of purified preparate of the free base of XK-62-3.
The residue is dissolved in a small amount of water and the solution is freeze-dried to obtain about 2.2 g of purified preparate of the free base of XK-62-4.
After the completion of fermentation, the culture liquor is adjusted to pH 2.0 with 12 N sulfuric acid and stirred for 30 minutes. Then, about 20 kg of Radiolite No. 600 (filter aid) is added thereto and the microbial cells are removed by filtration. The filtrate is adjusted to pH 8.0 with 6 N sodium hydroxide and passed through a column packed with 100 L of a cation exchange resin, Amberlite IRC-50 (NH4^+ form). After washing the resin with water, the active substances are eluted out with 1 N aqueous ammonia. The eluate is obtained in fractions and the activity of each of the fractions is determined against Bacillus subtilis No. 10707 by a paper disc method using an agar plate. The eluate is concentrated to 2 L under reduced pressure. The concentrate is adjusted to pH 4.5 with 6 N sulfuric acid and the resulting insoluble substance is removed by filtration. To the filtrate 20 L of methanol is added to form a white precipitate. The precipitate is separated by filtration and washed with methanol. After drying in vacuo, 500 g of white powder, of a crude XK-62 series (sulfate form) is obtained.

[17] = test system: Staphylococcus aureus ATCC 6538P; test: MIC by agar dilution method at pH 8.0, Staphylococcus aureus ATCC 6538P; type: cell-based; conditions: ATCC6538P, read-out: Minimum Inhibitory Concentration
Source text: as §1, §2, §3

Escherichia coli KY 8332 = test: MIC by agar dilution method at pH 8.0, Escherichia coli KY 8332; type: cell-based; conditions: KY8332, Escherichia coli KY 8332, resistant to kanamycin, AAC(6')-I, read-out: Minimum Inhibitory Concentration
Source text: as §1, §2, §3

Escherichia coli KY 8310 = test: MIC by agar dilution method at pH 8.0, Escherichia coli KY 8310; type: cell-based; conditions: KY8310, read-out: Minimum Inhibitory Concentration
Source text: as §1, §2, §3

[18] = test system: resistant strains of Escherichia coli and Pseudomonas aeruginosa (6'-N-acetylation); conditions: strains with 6'-N-acetylation, etc.; known antibiotics; cited from earlier work
[19] = test system: resistant strains of Escherichia coli and Pseudomonas aeruginosa (3-N-acetylation, 2"-adenylation); conditions: strains with 3-N-acetylation, etc., known antibiotics; cited from earlier work
[20] = test system: resistant strains of Escherichia coli and Pseudomonas aeruginosa (3-N-acetylation, 2"-adenylation); test: Antibacterial activity against resistant strains with 3-N-acetylation, 2"-adenylation (in words); type: cell-based; conditions: E. coli and P. aeruginosa resistant by 3-N-acetylation, etc.
Source text: as §1, §2, §3

Providenicia sp. KY 8464 = test: MIC by agar dilution method at pH 8.0, Providenicia sp. KY 8464; type: cell-based; conditions: read-out: Minimum Inhibitory Concentration
Source text: as §1, §2, §3

Escherichia coli KY 8356 = test: MIC by agar dilution method at pH 8.0, Escherichia coli KY 8356; type: cell-based; conditions: KY8356, read-out: Minimum Inhibitory Concentration
Source text: as §1, §2, §3

Escherichia coli KY 8327 = test: MIC by agar dilution method at pH 8.0, Escherichia coli KY 8327; type: cell-based; conditions: KY8327, pH 8, read-out: Minimum Inhibitory Concentration
Source text: as §1, §2, §3

[21] = test system: Pseudomonas aeruginosa KY 8511; test: MIC by agar dilution method at pH 8.0, Pseudomonas aeruginosa KY 8511; type: cell-based; conditions: KY8511, Pseudomonas aeruginosa KY 8511, resistant to gentamicin, AAC(3)-I, read-out: Minimum Inhibitory Concentration
Source text: as §1, §2, §3

Escherichia coli KY 8348 = test: MIC by agar dilution method at pH 8.0, Escherichia coli KY 8348; type: cell-based; conditions: KY8348, Escherichia coli KY 8348, resistant to gentamicin, AAC(3)-I, read-out: Minimum Inhibitory Concentration
Source text: as §1, §2, §3

[22] = free base, Example 1, 1 mg of pure preparate corresponds to 1000 units

Compound: CNC1C(O)C(OC2C(N)CC(N)C(OC3OC(CN(C)C)CCC3N)C2O)OCC1(C)O (stereo not shown) [XK-62-4]
- MIC [1]: 0.26 µg/mL (≈ 0.544 µM)
- MIC [2]: 0.26 µg/mL (≈ 0.544 µM)
- MIC [3]: < 0.0011 µg/mL
- antibacterial activity [4]: very strong antibacterial activity
- MIC [5]: 0.0082 µg/mL (≈ 0.0172 µM)
- MIC [6]: > 10 µg/mL
- MIC [7]: 0.066 µg/mL (≈ 0.138 µM)
- MIC [8]: 0.26 µg/mL (≈ 0.544 µM)
- MIC [9]: 0.066 µg/mL (≈ 0.138 µM)
- antibacterial activity against certain resistant strains [10]: strong antibacterial activity
- MIC [11]: 0.13 µg/mL (≈ 0.272 µM)
- MIC (Escherichia coli ATCC 26): 0.033 µg/mL (≈ 0.0691 µM)
- LD50 [12]: 25.9 mg/kg
- solubility in organic solvents [13]: insoluble
- solubility in ethanol and acetone [13]: slightly soluble
- solubility in methanol [13]: soluble
- solubility in water [13]: very soluble
- MIC [14]: 0.011 µg/mL (≈ 0.023 µM)
- MIC [15]: 0.26 µg/mL (≈ 0.544 µM)
- activity of purified preparate [16, 22]: about 980 unit/mg
- activity [16]: 970 units
- MIC [17]: 0.0021 µg/mL (≈ 0.0044 µM)
- MIC (Escherichia coli KY 8332): 0.033 µg/mL (≈ 0.0691 µM)
- MIC (Escherichia coli KY 8310): 0.066 µg/mL (≈ 0.138 µM)

Compound: CNC1C(O)C(OC2C(N)CC(N)C(OC3OC(CN(C)C)CCC3N)C2O)OCC1(C)O (stereo not shown) [sulfate salt of XK-62-4]
- activity [16]: about 625 units

Compound: NCC1OC(OC2C(N)CC(N)C(OC3OC(CO)C(O)C(N)C3O)C2O)C(O)C(O)C1O (stereo not shown) [kanamycin A]
- effect on resistant strains [18]: ineffective

Compound: CNCC1CCC(N)C(OC2C(N)CC(N)C(OC3OCC(C)(O)C(NC)C3O)C2O)O1 (stereo not shown) [sagamicin (antibiotic XK-62-2)]
- effect on resistant strains [19]: ineffective

Compound: NC[C@H]1O[C@H](O[C@H]2[C@H](O)[C@@H](O[C@H]3O[C@H](CO)[C@@H](O)[C@H](N)[C@H]3O)[C@H](N)C[C@@H]2N)[C@H](O)[C@@H](O)[C@@H]1O [kanamycin]
- effect on resistant strains [19]: ineffective

Compound: CN[C@@H]1[C@@H](O)[C@@H](O[C@@H]2[C@@H](O)[C@H](O[C@H]3OC(CN)=CC[C@H]3N)[C@@H](N)C[C@H]2N)OC[C@]1(C)O [sisomicin]
- effect on resistant strains [18]: ineffective

Compound: NC[C@@H]1CC[C@@H](N)[C@@H](O[C@H]2[C@H](O)[C@@H](O[C@H]3O[C@H](CO)[C@@H](O)[C@H](N)[C@H]3O)[C@H](N)C[C@@H]2N)O1 [dibekacin, 3,4-dideoxy kanamycin B]
- effect on resistant strains [18]: ineffective

Compound: CNC1CC(N)C(OC2OCC(C)(O)C(NC)C2O)C(O)C1OC1OC(CN)CCC1N (stereo not shown) [sulfate salt of XK-62-3]
- activity [16]: about 630 units

Compound: CNC1CC(N)C(OC2OCC(C)(O)C(NC)C2O)C(O)C1OC1OC(CN)CCC1N (stereo not shown) [XK-62-3]
- MIC [1]: 1.52 µg/mL (≈ 3.28 µM)
- MIC [2]: > 10 µg/mL
- MIC [3]: < 0.0011 µg/mL
- antibacterial activity [4]: very strong antibacterial activity
- antibacterial activity against certain resistant strains [20]: strong antibacterial activity
- MIC [5]: 0.0082 µg/mL (≈ 0.0177 µM)
- MIC (Providenicia sp. KY 8464): 1.04 µg/mL (≈ 2.24 µM)
- MIC (Escherichia coli KY 8356): 0.26 µg/mL (≈ 0.561 µM)
- MIC (Escherichia coli KY 8327): 0.066 µg/mL (≈ 0.142 µM)
- MIC [6]: 0.25 µg/mL (≈ 0.539 µM)
- MIC [7]: 0.13 µg/mL (≈ 0.28 µM)
- MIC [8]: 0.26 µg/mL (≈ 0.561 µM)
- MIC [9]: 0.066 µg/mL (≈ 0.142 µM)
- MIC [11]: 0.26 µg/mL (≈ 0.561 µM)
- MIC [21]: 0.26 µg/mL (≈ 0.561 µM)
- MIC (Escherichia coli ATCC 26): 0.066 µg/mL (≈ 0.142 µM)
- MIC (Escherichia coli KY 8348): 0.033 µg/mL (≈ 0.0712 µM)
- LD50 [12]: 106 mg/kg
- solubility in organic solvents [13]: insoluble
- solubility in ethanol and acetone [13]: slightly soluble
- solubility in methanol [13]: soluble
- solubility in water [13]: very soluble
- MIC [14]: 0.033 µg/mL (≈ 0.0712 µM)
- activity of purified preparate ([16]; Example 2): 970 units/mg
- activity of purified preparate [16, 22]: about 985 unit/mg
- MIC [17]: 0.0021 µg/mL (≈ 0.00453 µM)
- MIC (Escherichia coli KY 8310): 0.066 µg/mL (≈ 0.142 µM)
